In patent US8541588B2, “Sulfonamide derivatives” (Pfizer Limited, priority 2009, dated 2013):

Target: T1, Nav1.7 (or SCN9A) channel; HEK cells stably transfected with hSCN9A (Homo sapiens, UniProt Q15858)
T1 construct: expressed in transfected cells
Assay: Nav1.7 block, PatchXpress 7000 automated whole-cell voltage clamp, estimated IC50 (EIC50)
Type: cell-based
Conditions: estimated IC50; hSCN9A HEK cells, PatchXpress platform; Examples 283-814

T1 sequence (Q15858 whole entry): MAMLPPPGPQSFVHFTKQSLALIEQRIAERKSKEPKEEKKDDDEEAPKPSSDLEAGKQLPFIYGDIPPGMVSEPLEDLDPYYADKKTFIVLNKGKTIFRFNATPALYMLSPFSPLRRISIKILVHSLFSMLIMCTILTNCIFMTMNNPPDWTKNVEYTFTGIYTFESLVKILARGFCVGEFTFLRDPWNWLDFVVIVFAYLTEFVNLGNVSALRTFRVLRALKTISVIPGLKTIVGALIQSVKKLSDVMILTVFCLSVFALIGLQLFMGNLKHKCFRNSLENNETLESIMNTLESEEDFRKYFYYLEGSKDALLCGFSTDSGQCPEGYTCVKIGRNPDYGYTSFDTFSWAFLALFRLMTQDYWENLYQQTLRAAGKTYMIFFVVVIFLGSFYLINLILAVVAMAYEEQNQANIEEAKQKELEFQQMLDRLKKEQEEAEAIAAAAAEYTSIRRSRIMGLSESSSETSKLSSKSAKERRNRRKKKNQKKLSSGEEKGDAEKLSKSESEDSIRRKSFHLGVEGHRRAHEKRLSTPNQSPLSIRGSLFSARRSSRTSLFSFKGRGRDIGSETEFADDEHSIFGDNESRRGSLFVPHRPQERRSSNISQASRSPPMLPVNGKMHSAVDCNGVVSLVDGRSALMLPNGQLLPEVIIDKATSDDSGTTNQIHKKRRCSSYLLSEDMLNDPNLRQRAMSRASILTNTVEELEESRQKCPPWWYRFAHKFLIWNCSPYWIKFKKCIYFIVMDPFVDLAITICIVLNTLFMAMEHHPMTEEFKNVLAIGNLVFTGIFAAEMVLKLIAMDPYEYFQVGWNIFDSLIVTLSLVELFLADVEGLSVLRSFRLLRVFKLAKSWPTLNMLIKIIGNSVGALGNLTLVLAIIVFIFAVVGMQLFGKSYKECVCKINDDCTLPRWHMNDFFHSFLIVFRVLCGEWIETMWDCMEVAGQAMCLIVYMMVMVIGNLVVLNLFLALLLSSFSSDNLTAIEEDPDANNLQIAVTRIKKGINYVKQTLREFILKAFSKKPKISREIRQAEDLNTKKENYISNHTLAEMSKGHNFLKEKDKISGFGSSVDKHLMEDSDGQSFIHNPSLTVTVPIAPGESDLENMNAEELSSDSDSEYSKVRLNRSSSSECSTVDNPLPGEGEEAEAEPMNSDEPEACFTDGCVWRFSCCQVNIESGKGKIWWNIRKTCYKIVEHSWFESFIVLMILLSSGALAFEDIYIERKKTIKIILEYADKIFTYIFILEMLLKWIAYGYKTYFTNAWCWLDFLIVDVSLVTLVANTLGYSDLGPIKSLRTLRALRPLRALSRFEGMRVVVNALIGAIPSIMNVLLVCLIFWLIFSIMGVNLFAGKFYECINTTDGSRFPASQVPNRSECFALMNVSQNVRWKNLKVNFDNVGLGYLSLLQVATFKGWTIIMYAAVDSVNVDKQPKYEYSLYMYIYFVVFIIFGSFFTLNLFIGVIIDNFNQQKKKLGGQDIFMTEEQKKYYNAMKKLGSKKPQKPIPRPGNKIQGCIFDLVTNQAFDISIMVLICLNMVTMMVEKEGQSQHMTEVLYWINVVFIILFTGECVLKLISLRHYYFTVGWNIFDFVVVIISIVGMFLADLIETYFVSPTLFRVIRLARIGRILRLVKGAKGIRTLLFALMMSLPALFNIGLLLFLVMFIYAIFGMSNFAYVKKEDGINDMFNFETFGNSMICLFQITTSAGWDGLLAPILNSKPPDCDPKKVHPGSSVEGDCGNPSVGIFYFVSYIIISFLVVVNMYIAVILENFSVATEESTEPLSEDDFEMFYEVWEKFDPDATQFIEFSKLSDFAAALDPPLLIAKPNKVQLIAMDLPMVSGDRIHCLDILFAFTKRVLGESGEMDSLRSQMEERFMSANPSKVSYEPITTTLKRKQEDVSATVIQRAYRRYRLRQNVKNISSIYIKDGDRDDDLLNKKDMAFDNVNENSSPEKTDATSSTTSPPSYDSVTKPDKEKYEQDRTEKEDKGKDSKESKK

SMILES | IC50 [nM]
O=S(=O)(Nc1ncns1)c1cc(F)c(Oc2ccc(Cl)cc2-c2ccn[nH]2)cc1F [Example 637, 4-[4-Chloro-2-(1H-pyrazol-5-yl)phenoxy]-2,5-difluoro-N-1,2,4-thiadiazol-5-ylbenzenesulfonamide] | 16
N#Cc1cc(S(=O)(=O)Nc2nccs2)ccc1Oc1cccc(-c2cccc(N)n2)c1 [Example 639, 4-[3-(6-aminopyridin-2-yl)phenoxy]-3-cyano-N-1,3-thiazol-2-ylbenzenesulfonamide] | 6900
CC(=O)N1CC(c2cc(Cl)ccc2Oc2ccc(S(=O)(=O)Nc3nccs3)cc2C#N)C1 [Example 640, 4-[2-(1-acetylazetidin-3-yl)-4-chlorophenoxy]-3-cyano-N-1,3-thiazol-2-ylbenzenesulfonamide] | 1000
N#Cc1cc(S(=O)(=O)Nc2nccs2)ccc1Oc1ccc(F)cc1-c1cnn(CC(F)(F)F)c1 [Example 641, 3-cyano-4-{4-fluoro-2-[1-(2,2,2-trifluoroethyl)-1H-pyrazol-4-yl]phenoxy}-N-1,3-thiazol-2-ylbenzenesulfonamide] | 1300
N#Cc1cc(S(=O)(=O)Nc2nccs2)ccc1Oc1ccc(Cn2cccn2)cc1F [Example 642, 3-cyano-4-[2-fluoro-4-(1H-pyrazol-1-ylmethyl)phenoxy]-N-1,3-azol-2-ylbenzenesulfonamide] | 2600
N#Cc1cc(S(=O)(=O)Nc2nccs2)ccc1Oc1ccc(-n2ccc(C(F)(F)F)n2)nc1 [Example 643, 3-cyano-N-1,3-thiazol-2-yl-4-({6-[3-(trifluoromethyl)-1H-pyrazol-1-yl]pyridin-3-yl}oxy)benzenesulfonamide] | 2100
N#Cc1cc(S(=O)(=O)Nc2nccs2)ccc1Oc1ccc(Oc2ccccc2)nc1 [Example 644, 3-cyano-4-[(6-phenoxypyridin-3-yl)oxy]-N-1,3-thiazol-2-ylbenzenesulfonamide] | 2600
Cn1nccc1-c1ccc(Oc2ccc(S(=O)(=O)Nc3nccs3)cc2C#N)cn1 [Example 645, 3-cyano-4-{[6-(1-methyl-1H-pyrazol-5-yl)pyridin-3-yl]oxy}-N-1,3-thiazol-2-ylbenzenesulfonamide] | >1000
N#Cc1cc(S(=O)(=O)Nc2nccs2)ccc1Oc1ccc(-c2ccccc2)nc1 [Example 646, 3-cyano-4-[(6-phenylpyridin-3-yl)oxy]-N-1,3-thiazol-2-ylbenzenesulfonamide] | 2800
Cn1nc(C(F)(F)F)cc1-c1ccc(Oc2ccc(S(=O)(=O)Nc3nccs3)cc2C#N)cn1 [Example 647, 3-cyano-4-({6-[1-methyl-3-(trifluoromethyl)-1H-pyrazol-5-yl]pyridin-3-yl}oxy)-N-1,3-thiazol-2-ylbenzenesulfonamide] | 2900
Cn1nccc1-c1cc(Oc2ccc(S(=O)(=O)Nc3nccs3)cc2C#N)ccc1Cl [Example 648, 4-[4-chloro-3-(1-methyl-1H-pyrazol-5-yl)phenoxy]-3-cyano-N-1,3-thiazol-2-ylbenzenesulfonamide] | 1600
Cc1cc(C(F)(F)F)nn1-c1cccc(Oc2ccc(S(=O)(=O)Nc3nccs3)cc2C#N)c1 [Example 650, 3-cyano-4-{3-[5-methyl-3-(trifluoromethyl)-1H-pyrazol-1-yl]phenoxy}-N-1,3-thiazol-2-ylbenzenesulfonamide] | 1600
Cn1ccnc1-c1cc(Cl)ccc1Oc1ccc(S(=O)(=O)Nc2nccs2)cc1C#N [Example 651, 4-[4-chloro-2-(1-methyl-1H-imidazol-2-yl)phenoxy]-3-cyano-N-1,3-thiazol-2-ylbenzenesulfonamide] | 1000
N#Cc1cc(S(=O)(=O)Nc2nccs2)ccc1Oc1ccc(Cl)cc1-c1cnccn1 [Example 652, 4-(4-chloro-2-pyrazin-2-ylphenoxy)-3-cyano-N-1,3-thiazol-2-ylbenzenesulfonamide] | 900
Cn1nc(C(F)(F)F)cc1-c1cc(F)cc(Oc2ccc(S(=O)(=O)Nc3nccs3)cc2C#N)c1 [Example 653, 3-cyano-4-{3-fluoro-5-[1-methyl-3-(trifluoromethyl)-1H-pyrazol-5-yl]phenoxy}-N-1,3-thiazol-2-ylbenzenesulfonamide] | 1100
COCc1cc(C(F)F)nn1-c1cccc(Oc2ccc(S(=O)(=O)Nc3nccs3)cc2C#N)c1 [Example 654, 3-cyano-4-{3-[3-(difluoromethyl)-5-(methoxymethyl)-1H-pyrazol-1-yl]phenoxy}-N-1,3-thiazol-2-ylbenzenesulfonamide] | 1100
O=S(=O)(Nc1cscn1)c1cc(Cl)c(Oc2ccc(Cl)cc2C2CCNCC2)cc1F [Example 655, 5-chloro-4-(4-chloro-2-piperidin-4-ylphenoxy)-2-fluoro-N-1,3-thiazol-4-ylbenzenesulfonamide] | 49
Cn1nccc1-c1nc(C(F)(F)F)ccc1Oc1cc(F)c(S(=O)(=O)Nc2cscn2)cc1Cl [Example 656, 5-chloro-2-fluoro-4-{[2-(1-methyl-1H-pyrazol-5-yl)-6-(trifluoromethyl)pyridin-3-yl]oxy}-N-1,3-thiazol-4-ylbenzenesulfonamide] | 270

SMILES | IC50 [nM]
Cn1nccc1-c1cc(F)ccc1Oc1cc(F)c(S(=O)(=O)Nc2cscn2)cc1Cl [Example 657, 5-chloro-2-fluoro-4-[4-fluoro-2-(1-methyl-1H-pyrazol-5-yl)phenoxy]-N-1,3-thiazol-4-ylbenzenesulfonamide] | 83
O=S(=O)(Nc1cscn1)c1cc(Cl)c(Oc2ccc(F)cc2-c2ccn[nH]2)cc1F [Example 658, 5-chloro-2-fluoro-4-[4-fluoro-2-(1H-pyrazol-5-yl)phenoxy]-N-1,3-thiazol-4-ylbenzenesulfonamide] | 250
O=S(=O)(Nc1cscn1)c1cc(Cl)c(Oc2ccc(C(F)(F)F)cc2-c2cn[nH]c2)cc1F [Example 659, 5-chloro-2-fluoro-4-[2-(1H-pyrazol-4-yl)-4-(trifluoromethyl)phenoxy]-N-1,3-thiazol-4-ylbenzenesulfonamide] | 91
O=S(=O)(Nc1cscn1)c1cc(Cl)c(Oc2ccc(Cl)cc2-c2cn[nH]c2)cc1F [Example 661, 5-chloro-4-[4-chloro-2-(1H-pyrazol-4-yl)phenoxy]-2-fluoro-N-1,3-thiazol-4-ylbenzenesulfonamide] | 77
Cc1n[nH]cc1-c1cc(Cl)ccc1Oc1cc(F)c(S(=O)(=O)Nc2cscn2)cc1Cl [Example 662, 5-chloro-4-[4-chloro-2-(3-methyl-1H-pyrazol-4-yl)phenoxy]-2-fluoro-N-1,3-thiazol-4-ylbenzenesulfonamide] | 33
O=S(=O)(Nc1cscn1)c1cc(Cl)c(Oc2cc(C(F)(F)F)ccc2-c2cccc(CO)c2)cc1F [Example 663, 5-chloro-2-fluoro-4-{[3′-(hydroxymethyl)-4-(trifluoromethyl)biphenyl-2-yl]oxy}-N-1,3-thiazol-4-ylbenzenesulfonamide] | 130
N#Cc1cc(S(=O)(=O)Nc2ncns2)ccc1Oc1ccc(-c2nc(CO)co2)cc1 [Example 665, 3-Cyano-4-{4-[4-(hydroxymethyl)-1,3-oxazol-2-yl]phenoxy}-N-1,2,4-thiadiazol-5-ylbenzenesulfonamide] | >1000
O=S(=O)(Nc1ccc(F)cn1)c1cc(F)c(Oc2ccc(C(F)(F)F)cc2C2CCNCC2)cc1F [Example 666, 2,5-Difluoro-N-(5-fluoropyridin-2-yl)-4-[2-piperidin-4-yl-4-(trifluoromethyl)phenoxy]benzenesulfonamide] | 270
Cn1nccc1-c1cc(Cl)ccc1Oc1ccc(S(=O)(=O)Nc2ncc(F)cc2F)cc1F [Example 667, 4-[4-chloro-2-(1-methyl-1H-pyrazol-5-yl)phenoxy]-N-(3,5-difluoropyridin-2-yl)-3-fluorobenzenesulfonamide] | 3100
Cn1nccc1-c1cc(Cl)ccc1Oc1ccc(S(=O)(=O)Nc2ccncn2)cc1Cl [Example 668, 3-Chloro-4-[4-chloro-2-(1-methyl-1H-pyrazol-5-yl)phenoxy]-N-pyrimidin-4-ylbenzenesulfonamide] | 53
Cn1nccc1-c1cc(F)ccc1Oc1ccc(S(=O)(=O)Nc2ccncn2)cc1Cl [Example 669, 3-Chloro-4-[4-fluoro-2-(1-methyl-1H-pyrazol-5-yl)phenoxy]-N-pyrimidin-4-ylbenzenesulfonamide] | 200
Cn1nccc1-c1cc(Cl)ccc1Oc1ccc(S(=O)(=O)Nc2ccncn2)cc1F [Example 670, 4-[4-Chloro-2-(1-methyl-1H-pyrazol-5-yl)phenoxy]-3-fluoro-N-pyrimidin-4-ylbenzenesulfonamide] | 350
N#Cc1cc(S(=O)(=O)Nc2ncns2)ccc1Oc1ccc(C(F)(F)F)cc1-c1cnccn1 [Example 671, 3-cyano-4-[2-pyrazin-2-yl-4-(trifluoromethyl)phenoxy]-N-1,2,4-thiadiazol-5-ylbenzenesulfonamide] | 260
O=S(=O)(Nc1cscn1)c1ccc(Oc2ccc(Cl)cc2-c2cn[nH]c2)cc1 [Example 672, 4-[4-chloro-2-(1H-pyrazol-4-yl)phenoxy]-N-1,3-thiazol-4-ylbenzenesulfonamide] | 2500
O=S(=O)(Nc1cscn1)c1ccc(Oc2ccc(Cl)cc2-c2cn[nH]c2)c(Cl)c1 [Example 673, 3-chloro-4-[4-chloro-2-(1H-pyrazol-4-yl)phenoxy]-N-1,3-thiazol-4-ylbenzenesulfonamide] | 690
O=S(=O)(Nc1ncc(F)s1)c1ccc(Oc2ccc(Cl)cc2-c2cn[nH]c2)c(F)c1 [Example 674, 4-[4-chloro-2-(1H-pyrazol-4-yl)phenoxy]-3-fluoro-N-(5-fluoro-1,3-thiazol-2-yl)benzenesulfonamide] | 88
Cn1nccc1-c1cc(F)ccc1Oc1c(F)cc(S(=O)(=O)Nc2ncns2)cc1C#N [Example 675, 3-cyano-5-fluoro-4-[4-fluoro-2-(1-methyl-1H-pyrazol-5-yl)phenoxy]-N-1,2,4-thiadiazol-5-ylbenzenesulfonamide] | 370
N#Cc1cc(S(=O)(=O)Nc2ncns2)cc(F)c1Oc1ccc(Cl)cc1-c1cn[nH]c1 [Example 676, 4-[4-chloro-2-(1H-pyrazol-4-yl)phenoxy]-3-cyano-5-fluoro-N-1,2,4-thiadiazol-5-ylbenzenesulfonamide] | 190
